Data set [1] relates to THP-1. The data set can be described thus: Antiinflammatory activity in PMA-treated human THP1 cells assessed as inhibition of LPS-induced TNFalpha production at 2 uM incubated for 24 hrs prior to LPS challenge measured after 24 hrs by ELISA. Type of data set: functional, cell-based. (ELISA stands for enzyme-linked immunosorbent assay.)
The test system of data set [2] is THP-1. The data set can be described thus: Cytotoxicity against PMA-treated human THP1 cells assessed as cell viability at 8 to 10 uM after 48 hrs by SRB assay. The class given is cell-based. As to conditions: thp-1, 48 h. For orientation: The SRB assay estimates cell density from bound dye.
Data set [3] can be described thus: Ratio of trolox EC50 to compound EC50 for ABTS free radical scavenging activity.
Data set [4] can be described thus: Antioxidant activity assessed as ABTS free radical scavenging activity measured up to 6 mins by spectrophotometric analysis. Type of data set: functional.
The subject of data set [5] is THP-1. The data set can be described thus: Antiinflammatory activity in PMA-treated human THP1 cells assessed as inhibition of LPS-induced TNFalpha production at 10 uM incubated for 24 hrs prior to LPS challenge measured after 24 hrs by ELISA relative to control. Type of data set: functional.
Data set [6] deals with THP-1. The data set can be described thus: Antiinflammatory activity in PMA-treated human THP1 cells assessed as inhibition of LPS-induced TNFalpha production at 8 uM incubated for 24 hrs prior to LPS challenge measured after 24 hrs by ELISA relative to control. The class given is functional.
In data set [7] the test system is THP-1. As to the kind of experiment: Antiinflammatory activity in PMA-treated human THP1 cells assessed as inhibition of LPS-induced TNFalpha production at 6 uM incubated for 24 hrs prior to LPS challenge measured after 24 hrs by ELISA relative to control. The class given is functional.

The source made the active and inactive calls. The calls are words filed in the database; no cut-off is given here.

For orientation: inhibition means how much of the control response was suppressed. As usually defined, the EC50 is the concentration at which the effect is half-maximal. As for `COc1c(C)cc(O)cc1C/C=C(\C)CC(=O)/C=C(/C)CCCC(C)C(=O)/C=C/C(C)(C)O` (centres undefined), the inhibition entry in data set [1] is “inactive”. Further, the Activity result in data set [2] is listed as “Non-toxic”. Moreover, the Ratio EC50 in data set [3] is 0.98. Moreover, the EC50 in data set [4] amounted to 26.3 µM.

For the molecule `COc1c(C)cc(O)cc1C/C=C(\C)CC(=O)/C=C(\C)CCCC(C)C(=O)/C=C/C(C)(C)O` (centres undefined), the Ratio EC50 in data set [3] came out at 1.06. Besides, the EC50 in data set [4] was 24.5 µM.

Consider `COc1c(C)cc(O)cc1C/C=C(\C)CC(=O)/C=C(\C)CCCC(C)(O)C(=O)/C=C/C(C)(C)O` (centres undefined), for which the Activity entry in data set [2] was “Non-toxic”. For the same molecule, the inhibition at 10 µM in data set [5] is 64%. Moreover, the Ratio EC50 in data set [3] amounted to 0.78. Also, in data set [4], the EC50 was 33.1 µM.

`COc1c(C)cc(O)cc1/C=C/C(C)(O)CC(=O)/C=C(/C)CCCC(C)C(=O)/C=C/C(C)(C)O` (centres undefined) [CYSTODIONE A]: the Activity entry in data set [2] is “Non-toxic”. Besides, the Ratio EC50 in data set [3] was 1.15. Also, the EC50 in data set [4] is 22.5 µM. For the same molecule, the inhibition at 8 µM in data set [6] worked out at 33%.

Turning to `COc1c(C)cc(O)cc1/C=C/C(C)(O)CC(=O)/C=C(\C)CCCC(C)C(=O)/C=C/C(C)(C)O` (centres undefined) [CYSTODIONE B], in data set [2], the Activity result is “Non-toxic”. The inhibition at 6 µM in data set [7] was determined as 11%. Also, in data set [3], the Ratio EC50 worked out at 1.06. Moreover, the EC50 in data set [4] was determined as 24.4 µM.

Turning to `COc1c(C)cc(O)cc1/C=C/C(C)(O)CC(=O)/C=C(/C)CCCC(C)=O` (centres undefined) [CYSTODIONE C], the Ratio EC50 in data set [3] came out at 0.46. In addition, the EC50 in data set [4] is 55.9 µM.

`COc1c(C)cc(O)cc1/C=C/C(C)(O)CC(=O)/C=C(\C)CCCC(C)=O` (centres undefined) [CYSTODIONE D]: the Activity result in data set [2] was “Non-toxic”. Further, in data set [5], the inhibition at 10 µM was found to be 11%. Also, the Ratio EC50 in data set [3] is 0.58. Moreover, in data set [4], the EC50 worked out at 44.7 µM.

Regarding `COc1c(C)cc(O)cc1C/C=C(\C)CC(=O)/C=C(/C)CCCC(C)=O` [CYSTOMEXICONE A], the Ratio EC50 in data set [3] stood at 0.5. The EC50 in data set [4] came to 51.6 µM.

Turning to `COc1c(C)cc(O)cc1C/C=C(\C)CC(=O)/C=C(\C)CCCC(C)=O` [CYSTOMEXICONE B], the Ratio EC50 in data set [3] worked out at 0.78. Besides, in data set [4], the EC50 was 33.3 µM.

Turning to `Cc1c(C)c2c(c(C)c1O)CCC(C)(C(=O)O)O2` (centres undefined) [TROLOX], the Ratio EC50 in data set [3] came out at 1. Also, the EC50 in data set [4] worked out at 25.9 µM.

Take `COc1c(C)cc(O)cc1C/C=C(\C)CC(=O)/C=C(/C)CCCC(C)(O)C(=O)/C=C/C(C)(C)O` (centres undefined) [USNEOIDONE Z]: the Activity result in data set [2] is on record as “Non-toxic”. Also, the inhibition at 10 µM in data set [5] was 73%. Besides, the Ratio EC50 in data set [3] is 0.6. The EC50 in data set [4] was determined as 43.1 µM.

(Values after ChEMBL document CHEMBL2331111, “Antioxidant and anti-inflammatory meroterpenoids from the brown alga Cystoseira usneoides” (J Nat Prod, 2013).)
